This note sets out measurements from ChEMBL document CHEMBL4004782, “A review on tacrine-based scaffolds as multi-target drugs (MTDLs) for Alzheimer's disease” (Eur J Med Chem, 2017).

In test [1] the target is Acetylcholinesterase (Homo sapiens, UniProt P22303). Description: Inhibition of human AchE-induced amyloid beta (1 to 40) aggregation after 48 hrs by thioflavin T fluorescence spectroscopic method.
The target in test [2] is T1, Acetylcholinesterase (Bos taurus, UniProt P23795).
T1 sequence (P23795 whole entry): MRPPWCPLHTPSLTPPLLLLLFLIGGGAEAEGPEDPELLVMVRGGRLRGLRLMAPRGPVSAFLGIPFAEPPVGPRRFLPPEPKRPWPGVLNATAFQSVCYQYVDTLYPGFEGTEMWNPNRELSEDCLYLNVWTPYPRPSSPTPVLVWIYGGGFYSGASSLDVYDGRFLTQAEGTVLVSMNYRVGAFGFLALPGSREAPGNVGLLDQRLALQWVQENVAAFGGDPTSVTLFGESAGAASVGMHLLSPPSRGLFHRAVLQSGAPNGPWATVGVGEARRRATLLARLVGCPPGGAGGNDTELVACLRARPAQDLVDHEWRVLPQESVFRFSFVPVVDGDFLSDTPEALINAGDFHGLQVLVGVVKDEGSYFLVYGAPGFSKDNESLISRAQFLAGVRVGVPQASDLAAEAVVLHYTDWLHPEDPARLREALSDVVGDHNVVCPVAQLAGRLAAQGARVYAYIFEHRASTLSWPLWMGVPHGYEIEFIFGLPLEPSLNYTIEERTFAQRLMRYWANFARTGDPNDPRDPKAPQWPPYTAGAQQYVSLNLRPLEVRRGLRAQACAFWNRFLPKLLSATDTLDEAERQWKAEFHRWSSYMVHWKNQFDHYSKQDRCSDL
The experiment in a line: Inhibition of bovine erythrocyte AchE using acetylthiocholine as substrate by Ellman's method.

Test [3] concerns the target T2, Acetylcholinesterase (Bos taurus) (UniProt P23795).
T2 sequence (whole entry): T1 sequence (P23795 whole entry)
The experiment in a line: Displacement of propidium iodide from bovine erythrocyte AchE at 0.3 uM incubated for 6 hrs followed by addition of propidium iodide and measured after 15 mins by thioflavin T-fluorescence assay.

Test [4] addresses T2, Acetylcholinesterase (Bos taurus). The experiment in a line: Displacement of propidium iodide from bovine erythrocyte AchE at 3 uM incubated for 6 hrs followed by addition of propidium iodide and measured after 15 mins by thioflavin T-fluorescence assay.
Test [5] has the same target. The experiment in a line: Displacement of propidium iodide from bovine erythrocyte AchE at 1 uM incubated for 6 hrs followed by addition of propidium iodide and measured after 15 mins by thioflavin T-fluorescence assay.
Test [6] concerns the target T3, Acetylcholinesterase (Rattus norvegicus, UniProt P37136).
T3 sequence (P37136 whole entry): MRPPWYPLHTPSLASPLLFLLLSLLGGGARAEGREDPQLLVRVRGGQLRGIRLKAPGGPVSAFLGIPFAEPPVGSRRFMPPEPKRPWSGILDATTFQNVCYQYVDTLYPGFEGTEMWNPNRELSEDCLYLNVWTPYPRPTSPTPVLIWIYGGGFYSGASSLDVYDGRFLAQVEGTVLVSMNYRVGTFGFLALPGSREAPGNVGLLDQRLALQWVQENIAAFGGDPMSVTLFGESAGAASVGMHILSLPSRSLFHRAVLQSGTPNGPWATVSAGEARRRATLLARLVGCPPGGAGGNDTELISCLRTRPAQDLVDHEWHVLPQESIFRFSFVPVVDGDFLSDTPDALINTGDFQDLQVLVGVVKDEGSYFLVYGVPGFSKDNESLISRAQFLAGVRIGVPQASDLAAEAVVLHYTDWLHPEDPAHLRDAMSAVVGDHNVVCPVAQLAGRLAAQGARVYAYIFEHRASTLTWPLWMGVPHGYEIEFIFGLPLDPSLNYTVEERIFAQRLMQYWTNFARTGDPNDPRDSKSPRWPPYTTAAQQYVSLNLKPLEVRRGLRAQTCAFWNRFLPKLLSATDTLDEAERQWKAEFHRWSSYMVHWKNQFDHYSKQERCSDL
Description: Inhibition of rat cortex AchE using acetylthiocholine iodide as substrate by Ellman's method.

A short description of test [7]: Selectivity index, ratio of IC50 for human serum BChE to IC50 for rat cortex AchE.
For the next test, the target named is Cholinesterase (Homo sapiens, UniProt P06276). The experiment in a line: Inhibition of BuChE (unknown origin).
Sequence of Cholinesterase (P06276 whole entry): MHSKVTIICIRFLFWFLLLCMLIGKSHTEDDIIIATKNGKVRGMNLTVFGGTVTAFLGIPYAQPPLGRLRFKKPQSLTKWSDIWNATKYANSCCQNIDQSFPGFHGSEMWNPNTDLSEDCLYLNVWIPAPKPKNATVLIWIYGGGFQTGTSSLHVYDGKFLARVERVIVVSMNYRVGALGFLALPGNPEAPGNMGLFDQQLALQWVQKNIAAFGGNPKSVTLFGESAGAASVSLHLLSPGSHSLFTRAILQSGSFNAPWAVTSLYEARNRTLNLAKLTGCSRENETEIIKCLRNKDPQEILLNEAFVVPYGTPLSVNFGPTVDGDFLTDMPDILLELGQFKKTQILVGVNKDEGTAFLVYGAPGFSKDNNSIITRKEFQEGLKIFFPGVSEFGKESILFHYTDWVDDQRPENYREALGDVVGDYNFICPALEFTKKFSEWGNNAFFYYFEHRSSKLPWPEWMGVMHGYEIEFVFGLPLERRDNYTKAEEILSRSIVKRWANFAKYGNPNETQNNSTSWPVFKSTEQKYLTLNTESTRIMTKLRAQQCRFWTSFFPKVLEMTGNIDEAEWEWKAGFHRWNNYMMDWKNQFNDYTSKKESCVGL

Sequence of Acetylcholinesterase (Homo sapiens, UniProt P22303) (P22303 whole entry): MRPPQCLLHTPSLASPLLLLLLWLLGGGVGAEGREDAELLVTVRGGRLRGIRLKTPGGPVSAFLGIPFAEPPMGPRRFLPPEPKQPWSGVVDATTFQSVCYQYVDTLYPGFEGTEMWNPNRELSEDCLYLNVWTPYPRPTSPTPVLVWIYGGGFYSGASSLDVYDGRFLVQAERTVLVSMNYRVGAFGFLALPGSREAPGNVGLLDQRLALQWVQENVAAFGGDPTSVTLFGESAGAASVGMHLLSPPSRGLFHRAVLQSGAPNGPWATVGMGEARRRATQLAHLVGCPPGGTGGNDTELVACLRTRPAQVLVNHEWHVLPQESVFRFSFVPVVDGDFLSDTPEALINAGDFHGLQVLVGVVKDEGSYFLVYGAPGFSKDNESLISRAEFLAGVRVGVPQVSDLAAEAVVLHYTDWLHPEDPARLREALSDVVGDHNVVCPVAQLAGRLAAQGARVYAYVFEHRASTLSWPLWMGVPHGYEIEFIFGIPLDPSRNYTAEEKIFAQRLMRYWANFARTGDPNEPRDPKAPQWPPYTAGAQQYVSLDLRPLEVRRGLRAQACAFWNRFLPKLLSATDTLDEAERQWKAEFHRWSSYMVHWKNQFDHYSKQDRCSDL

For `O=C(CCCC1CCSS1)NCCCNc1c2c(nc3cc(Cl)ccc13)CCCC2` (stereo not given), the midpoint of inhibition at Acetylcholinesterase [1], the IC50, lay at 253 nM.
Take `O=C(CCCCCNc1c2c(nc3ccccc13)CCCC2)NCCc1c[nH]c2ccccc12`: at Acetylcholinesterase [2], the IC50 stood at 1 nM. Further, the inhibition is 42% in test [3], 35% in test [4] and 34% in test [5].
`Clc1ccc2c(NCCCCCCCCNc3c4c(nc5ccccc35)CCCC4)c3c(nc2c1)CCCC3` registered an IC50 on Acetylcholinesterase [6] of 0.07 nM. In addition, the Ratio IC50 in test [7] was determined as 371.
For `Cc1c(C)c2c(c(C)c1O)CCC(C)(C(=O)NCCCCCCCCNc1c3c(nc4cc(Cl)ccc14)CCCC3)O2` (stereo not given), the IC50 on Cholinesterase turned out to be 54 nM.
Compound `c1ccc2c(NCCCCCCCCNc3c4c(nc5c3CCCC5)CCCC4)c3c(nc2c1)CCCC3` came in with an IC50 against Acetylcholinesterase [6] of 0.2 nM. Besides, the Ratio IC50 in test [7] was 221.
Turning to `O=C(CCCCCCNc1c2c(nc3cc(Cl)ccc13)CCCC2)NCCc1c[nH]c2ccccc12`, the values for the inhibition in test [3], in test [4] and in test [5] were 42%, 35% and 34%, respectively.
Turning to `Clc1ccc2c(NCCCCCCCCCNc3c4c(nc5c3CCCC5)CCCC4)c3c(nc2c1)CCCC3`, the IC50 against Acetylcholinesterase [6] was 0.3 nM. For the same compound, in test [7], the Ratio IC50 amounted to 647.
